For 35 compounds, IC50 results are on record in patent US8742138B2, “Compounds as hypoxia mimetics, and compositions and uses thereof” (Betta Pharmaceuticals Co., Ltd., priority 2009, dated 2014).

pIC50: −log10 of the molar value.

For the experiment, the target named is HIF-PHD2 (Homo sapiens (Human), UniProt Q9GZT9). The experiment is described as follows: Assay of HIF-PHD2 Enzyme Activity (TR-FRET). The experiment is classed as biochemical. The following applies: 600 nM full length PHD2, 0.2 μM 2-oxoglutarate, 0.5 μM HIF-1α peptide. The protocol:
HIF-PHD2 activity was measured using homogeneous TR-FRET technology (see also, US2008/004817; Dao J H et al., Anal Biochem. 2009, 384:213-23). To each well of a ½Area 96-well plate was added 2 μL of test compound in DMSO and 40 μL of assay buffer (50 mM Tris PH7.4/0.01% Tween-20/0.1 mg/ml BSA/1 mM Sodium ascorbate/20 μg/ml Catalase/10 μM FeSO4) containing 600 nM full length PHD2. After a 30 min preincubation at room temperature, the enzymatic reactions were initiated by the addition of 8 μL of substrates (final concentrations of 0.2 μM 2-oxoglutarate and 0.5 μM HIF-1α peptide biotinyl-[…]). After 2 hr at room temperature, the reactions were terminated and signals were developed by the addition of a 50 μL quench/detection mix to a final concentration of 1 mM ortho-phenanthroline, 0.1 mM EDTA, 0.5 nM anti-(His)6LANCE reagent, 100 nM AF647-labeled Streptavidin, and 30 nM (His)6-VHL-elonginB-elonginC complex. The ratio of time resolved fluorescence signals at 665 and 620 nm was determined, and percent inhibition was calculated relative to an uninhibited control sample run in parallel.
In general terms: In TR-FRET formats the signal depends on donor and acceptor labels being close together.

HIF-PHD2, sequence (Q9GZT9 whole entry): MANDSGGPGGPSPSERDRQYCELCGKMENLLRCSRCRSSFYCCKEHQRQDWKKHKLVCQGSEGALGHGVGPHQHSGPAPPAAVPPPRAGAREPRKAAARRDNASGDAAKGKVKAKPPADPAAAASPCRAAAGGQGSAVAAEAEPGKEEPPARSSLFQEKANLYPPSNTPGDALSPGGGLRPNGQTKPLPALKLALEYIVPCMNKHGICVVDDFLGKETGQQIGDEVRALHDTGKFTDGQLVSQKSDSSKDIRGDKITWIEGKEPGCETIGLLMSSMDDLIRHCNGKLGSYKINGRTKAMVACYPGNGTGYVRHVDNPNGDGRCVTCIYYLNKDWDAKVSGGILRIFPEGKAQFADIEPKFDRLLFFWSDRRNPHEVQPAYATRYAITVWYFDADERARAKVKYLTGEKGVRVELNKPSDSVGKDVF

For orientation: pIC50 means the negative decadic logarithm of the IC50, by convention in mol/L. On to `O=C(O)CNC(=O)c1c(O)c2ccc(-c3ccccc3)cc2oc1=O` [Example 1, N-[(4-hydroxy-2-oxo-7-phenyl-2H-3-chromenyl)carbonyl]glycine], for which the pIC50 was 6.60.

Compound `O=C(O)CNC(=O)c1c(O)c2ccc(-c3ccccc3Cl)cc2oc1=O` [Example 2, N-[(4-hydroxy-2-oxo-7-(2-chloro-phenyl)-2H-3-chromenyl)carbonyl]glycine] gave a pIC50 of 6.82.

Compound `O=C(O)CNC(=O)c1c(O)c2ccc(-c3cccc(Cl)c3)cc2oc1=O` [Example 3, N-[(4-hydroxy-2-oxo-7-(3-chloro-phenyl)-2H-3-chromenyl)carbonyl]glycine] showed a pIC50 of 6.82.

For the compound `O=C(O)CNC(=O)c1c(O)c2ccc(-c3ccc(Cl)cc3)cc2oc1=O` [Example 4, N-[(4-hydroxy-2-oxo-7-(4-chloro-phenyl)-2H-3-chromenyl)carbonyl]glycine], the negative logarithm of the IC50 (pIC50) was 6.82.

On to `O=C(O)CNC(=O)c1c(O)c2ccc(-c3cccc(C(F)(F)F)c3)cc2oc1=O` [Example 5, N-[(4-hydroxy-2-oxo-7-(3-trifluoromethyl-phenyl)-2H-3-chromenyl)carbonyl]glycine], for which the negative logarithm of the IC50 (pIC50) is 6.82.

`O=C(O)CNC(=O)c1c(O)c2ccc(-c3ccc(C(F)(F)F)cc3)cc2oc1=O` [Example 6, N-[(4-hydroxy-2-oxo-7-(4-trifluoromethyl-phenyl)-2H-3-chromenyl)carbonyl]glycine] showed a pIC50 of 6.82.

For the compound `O=C(O)CNC(=O)c1c(O)c2ccc(-c3cccc(OC(F)(F)F)c3)cc2oc1=O` [Example 7, N-[(4-hydroxy-2-oxo-7-(3-trifluoromethoxy-phenyl)-2H-3-chromenyl)carbonyl]glycine], the pIC50 is 6.82.

The compound `O=C(O)CNC(=O)c1c(O)c2ccc(-c3ccc(OC(F)(F)F)cc3)cc2oc1=O` [Example 8, N-[(4-hydroxy-2-oxo-7-(4-trifluoromethoxy-phenyl)-2H-3-chromenyl)carbonyl]glycine] had a pIC50 of 6.82.

`O=C(O)CNC(=O)c1c(O)c2ccc(-c3ccc(Cl)c(Cl)c3)cc2oc1=O` [Example 9, N-[(4-hydroxy-2-oxo-7-(3,4-dichloro-phenyl)-2H-3-chromenyl)carbonyl]glycine]: the pIC50 was 6.82.

On to `O=C(O)CNC(=O)c1c(O)c2ccc(-c3ccc(F)c(F)c3)cc2oc1=O` [Example 10, N-[(4-hydroxy-2-oxo-7-(3,4-difluoro-phenyl)-2H-3-chromenyl)carbonyl]glycine], for which the pIC50 was 6.82.

With `O=C(O)CNC(=O)c1c(O)c2ccc(-c3cc(F)c(F)c(F)c3)cc2oc1=O` [Example 11, N-[(4-hydroxy-2-oxo-7-(3,4,5-trifluoro-phenyl)-2H-3-chromenyl)carbonyl]glycine], the negative logarithm of the IC50 (pIC50) is 6.82.

`COc1cccc(-c2ccc3c(O)c(C(=O)NCC(=O)O)c(=O)oc3c2)c1` [Example 12, N-[(4-hydroxy-2-oxo-7-(3-methoxy-phenyl)-2H-3-chromenyl)carbonyl]glycine] had a pIC50 of 6.82.

In turn, `COc1ccc(-c2ccc3c(O)c(C(=O)NCC(=O)O)c(=O)oc3c2)cc1` [Example 13, N-[(4-hydroxy-2-oxo-7-(4-methoxy-phenyl)-2H-3-chromenyl)carbonyl]glycine] had a pIC50 of 6.82.

As for `Cc1cccc(-c2ccc3c(O)c(C(=O)NCC(=O)O)c(=O)oc3c2)c1` [Example 14, N-[(4-hydroxy-2-oxo-7-(3-methylphenyl)-2H-3-chromenyl)carbonyl]glycine], the negative logarithm of the IC50 (pIC50) is 6.52.

Regarding `Cc1ccc(-c2ccc3c(O)c(C(=O)NCC(=O)O)c(=O)oc3c2)cc1` [Example 15, N-[(4-hydroxy-2-oxo-7-(4-methylphenyl)-2H-3-chromenyl)carbonyl]glycine], the negative-log IC50 (pIC50) was 6.82.

`O=C(O)CNC(=O)c1c(O)c2cccc(-c3ccccc3)c2oc1=O` [Example 16, N-[(4-hydroxy-2-oxo-8-phenyl-2H-3-chromenyl)carbonyl]glycine] had a negative logarithm of the IC50 (pIC50) of 6.46.

With `O=C(O)CNC(=O)c1c(O)c2cccc(-c3ccccc3Cl)c2oc1=O` [Example 17, N-[(4-hydroxy-2-oxo-8-(2-chlorophenyl)-2H-3-chromenyl)carbonyl]glycine], the negative logarithm of the IC50 (pIC50) is 6.70.

On to `O=C(O)CNC(=O)c1c(O)c2cccc(-c3cccc(Cl)c3)c2oc1=O` [Example 18, N-[(4-hydroxy-2-oxo-8-(3-chlorophenyl)-2H-3-chromenyl)carbonyl]glycine], for which the pIC50 is 7.05.

On to `O=C(O)CNC(=O)c1c(O)c2cccc(-c3ccc(Cl)cc3)c2oc1=O` [Example 19, N-[(4-hydroxy-2-oxo-8-(4-chlorophenyl)-2H-3-chromenyl)carbonyl]glycine], for which the negative-log IC50 (pIC50) is 6.82.

`O=C(O)CNC(=O)c1c(O)c2cccc(-c3cccc(C(F)(F)F)c3)c2oc1=O` [Example 20, N-[(4-hydroxy-2-oxo-8-(3-trifluoromethylphenyl)-2H-3-chromenyl)carbonyl]glycine] showed a pIC50 of 7.00.

As to `O=C(O)CNC(=O)c1c(O)c2cccc(-c3ccc(C(F)(F)F)cc3)c2oc1=O` [Example 21, N-[(4-hydroxy-2-oxo-8-(4-trifluoromethylphenyl)-2H-3-chromenyl)carbonyl]glycine], the negative-log IC50 (pIC50) was 7.05.

In turn, `O=C(O)CNC(=O)c1c(O)c2cccc(-c3cccc(OC(F)(F)F)c3)c2oc1=O` [Example 22, N-[(4-hydroxy-2-oxo-8-(3-trifluoromethoxyphenyl)-2H-3-chromenyl)carbonyl]glycine] showed a pIC50 of 7.00.

Compound `O=C(O)CNC(=O)c1c(O)c2cccc(-c3ccc(OC(F)(F)F)cc3)c2oc1=O` [Example 23, N-[(4-hydroxy-2-oxo-8-(4-trifluoromethoxyphenyl)-2H-3-chromenyl)carbonyl]glycine] showed a pIC50 of 6.82.

`O=C(O)CNC(=O)c1c(O)c2cccc(-c3ccc(Cl)c(Cl)c3)c2oc1=O` [Example 24, N-[(4-hydroxy-2-oxo-8-(3,4-dichlorophenyl)-2H-3-chromenyl)carbonyl]glycine] had a negative logarithm of the IC50 (pIC50) of 7.52.

The compound `O=C(O)CNC(=O)c1c(O)c2cccc(-c3ccc(F)c(F)c3)c2oc1=O` [Example 25, N-[(4-hydroxy-2-oxo-8-(3,4-difluorophenyl)-2H-3-chromenyl)carbonyl]glycine] had a pIC50 of 6.82.

Compound `O=C(O)CNC(=O)c1c(O)c2cccc(-c3cc(F)c(F)c(F)c3)c2oc1=O` [Example 26, N-[(4-hydroxy-2-oxo-8-(3,4,5-trifluorophenyl)-2H-3-chromenyl)carbonyl]glycine] gave a pIC50 of 6.82.

On to `COc1cccc(-c2cccc3c(O)c(C(=O)NCC(=O)O)c(=O)oc23)c1` [Example 27, N-[(4-hydroxy-2-oxo-8-(3-methoxyphenyl)-2H-3-chromenyl)carbonyl]glycine], for which the pIC50 was 6.82.

For `COc1ccc(-c2cccc3c(O)c(C(=O)NCC(=O)O)c(=O)oc23)cc1` [Example 28, N-[(4-hydroxy-2-oxo-8-(4-methoxyphenyl)-2H-3-chromenyl)carbonyl]glycine], the negative-log IC50 (pIC50) is 7.10.

Compound `Cc1cccc(-c2cccc3c(O)c(C(=O)NCC(=O)O)c(=O)oc23)c1` [Example 29, N-[(4-hydroxy-2-oxo-8-(3-methylphenyl)-2H-3-chromenyl)carbonyl]glycine] showed a negative logarithm of the IC50 (pIC50) of 6.82.

`Cc1ccc(-c2cccc3c(O)c(C(=O)NCC(=O)O)c(=O)oc23)cc1` [Example 30, N-[(4-hydroxy-2-oxo-8-(4-methylphenyl)-2H-3-chromenyl)carbonyl]glycine] gave a negative-log IC50 (pIC50) of 7.10.

In the case of `O=C(O)CNC(=O)c1c(O)c2ccc(-c3cccnc3)cc2oc1=O` [Example 33, N-[(4-hydroxy-2-oxo-7-(pyridin-3-yl)-2H-3-chromenyl)carbonyl]glycine], the negative-log IC50 (pIC50) is 6.70.

`O=C(O)CNC(=O)c1c(O)c2ccc(Oc3ccccc3)cc2oc1=O` [Example 34, N-[(4-hydroxy-2-oxo-7-phenoxy-2H-3-chromenyl)carbonyl]glycine] had a pIC50 of 6.82.

Regarding `O=C(O)CNC(=O)c1c(O)c2ccc(Br)cc2oc1=O` [Example 35, N-[(4-hydroxy-2-oxo-7-bromo-3-chromenyl)carbonyl]glycine], the negative-log IC50 (pIC50) was 6.82.

Compound `O=C(O)CNC(=O)c1c(O)c2cccc(Br)c2oc1=O` [Example 36, N-[(4-hydroxy-2-oxo-8-bromo-3-chromenyl)carbonyl]glycine] gave a pIC50 of 6.52.

On to `O=C(O)CNC(=O)c1c(O)c2cc(Br)ccc2oc1=O` [Example 37, N-[(4-hydroxy-2-oxo-6-bromo-3-chromenyl)carbonyl]glycine], for which the negative logarithm of the IC50 (pIC50) is 6.15.
